Data as given in US20230293411A1, “BIODEGRADABLE UV ABSORBERS” (BASF SE, priority 2020, published 2023).
Structures can show the parent of a compound that is named as a salt. Where two headings read alike, the source gives them in different places.

Experiments:
[1] = Absorbance of croconic acid salts in formulation on PMMA plates; type: physicochemical; conditions: for Absorbance of the formulation: Formulations 1 and 2, 30 mg on PMMA plate, 15 minutes equilibration, 290-400 nm, FIG. 2, compared to Table 1
Method: The absorbance of Formulation 1 and 2 was determined as follows: […]
30 mg milligram of product were evenly spread on roughened PMMA plates (Heliosplate SB6, Helioscreen Creil/France) using a presaturated finger cot. After an equilibration time of 15 minutes transmission measurements between 290 and 400 nm were carried out using a spectrophotometer equipped with an integrating sphere (UV Transmittance Analyzer UV1000-S, Labsphere North Sutton/US).

[2] = Specific extinction coefficient by UV/VIS spectrophotometry in water; type: physicochemical
[3] = Biodegradation, OECD 301F manometric respirometry test; conditions: inferred from components; the salt itself was not tested

| SMILES | Absorbance of the formulation [1] | Crystallization after water evaporation ([1]; in formulation on PMMA plate) | E1, 1 (specific extinction coefficient at λmax) ([2]; in water, d=1 cm, at λmax) | Maximum absorbance wavelength (λmax) ([2]; in water, optical pathlength d=1 cm, spectrum 250 nm to 500 nm) [nm] | E1, 1 (specific extinction coefficient at λmax) [2] | Maximum absorbance wavelength (λmax) [2] [nm] | Biodegradability concluded from croconic acid and triethanolamine [3] |
| --- | --- | --- | --- | --- | --- | --- | --- |
| O=c1c([O-])c([O-])c(=O)c1=O.[Na+].[Na+] [Comp. Compound 1, 4,5-Dihydroxy-4-cyclopentene-1,2,3-trione di-Sodium Salt] | lower | crystallization | 1996 | 364 | – | – | – |
| O=c1c([O-])c([O-])c(=O)c1=O.[K+].[K+] [Comp. Compound 2, 4,5-Dihydroxy-4-cyclopentene-1,2,3-trione di-Potassium Salt] | – | – | – | – | 1704 | 364 | – |
| O=c1c(O)c(O)c(=O)c1=O [Compound A, 4,5-Dihydroxy-4-cyclopentene-1,2,3-trione di-triethanolammonium Salt] | within the expected range | – | – | – | 844 | 364 | biodegradable |
